Test results published in patent publication US20210254056A1, “IDENTIFICATION AND TARGETED MODULATION OF GENE SIGNALING NETWORKS” (CAMP4 THERAPEUTICS CORPORATION, priority 2017, published 2021).

System: hepatocytes
Assay: RNA-seq of hepatocytes treated with Phase III failure compounds
Protocol: RNA-seq was performed to determine the effects of the compounds on hepatocytes.
Significance was determined by the criteria of FPKM≥0.5, a log 2(fold-change)≥1, and a […].

SMILES: CCCCC(C(=O)c1ccccc1)N1CCCC1 (stereo not drawn) [a-PHP]
- significant changes in gene expression: not observed to cause any significant changes in gene expression
- significant modulation of expression of any of the genes analyzed (RNA-seq, p≤0.05, hepatocytes): not observed to significantly modulate expression

SMILES: COc1nc(N)nc2c1ncn2[C@@H]1O[C@H](COP(=O)(N[C@@H](C)C(=O)OCC(C)(C)C)Oc2cccc3ccccc23)[C@@H](O)[C@@]1(C)O (stereo partly drawn) [bms-986094]
- Number (#) of genes having significantly changed expression: 2079

SMILES: COc1cc(Nc2ncc(F)c(Nc3ccc4c(n3)N(COP(=O)(O)O)C(=O)C(C)(C)O4)n2)cc(OC)c1OC [fostamatinib]
- significant modulation of expression of disease genes (RNA-seq, q≤0.05, hepatocytes, genes in the value or listed in the block): significantly (q≤0.05) modulate expression
- effect on disease gene expression (RNA-seq, hepatocytes): effect on expression of too many disease genes
- RNA-seq results: A1BG expression (gene A1BG, hepatocytes): 0.01
- RNA-seq results: AGTR1 expression (gene AGTR1, hepatocytes): 0.25
- RNA-seq results: AGXT expression (gene AGXT, hepatocytes): 0.45
- RNA-seq results: AHI1 expression (gene AHI1, hepatocytes): 0.39
- RNA-seq results: AMPD3 expression (gene AMPD3, hepatocytes): −0.90
- RNA-seq results: AMT expression (gene AMT, hepatocytes): −0.28
- RNA-seq results: ANGPTL3 expression (gene ANGPTL3, hepatocytes): 0.24
- RNA-seq results: ANKS4B expression (gene ANKS4B, hepatocytes): 0.49
- RNA-seq results: ANKS6 expression (gene ANKS6, hepatocytes): 0.03
- RNA-seq results: ANPEP expression (gene ANPEP, hepatocytes): 0.49
- RNA-seq results: AOC2 expression (gene AOC2, hepatocytes): 0.64
- RNA-seq results: APOA2 expression (gene APOA2, hepatocytes): −0.31
- RNA-seq results: APOA5 expression (gene APOA5, hepatocytes): 0.97
- RNA-seq results: APOB expression (gene APOB, hepatocytes): 1.87
- RNA-seq results: COG5 expression (gene COG5, hepatocytes): −0.12
- RNA-seq results: COG6 expression (gene COG6, hepatocytes): 0.18
- RNA-seq results: COL1A1 expression (gene COL1A1, hepatocytes): −0.09
- RNA-seq results: COX6A1 expression (gene COX6A1, hepatocytes): 0.29
- RNA-seq results: CP expression (gene CP, hepatocytes): −0.16
- RNA-seq results: CPS1 expression (gene CPS1, hepatocytes): −0.56
- RNA-seq results: CPT1A expression (gene CPT1A, hepatocytes): −0.03
- RNA-seq results: CPT2 expression (gene CPT2, hepatocytes): 0.28
- RNA-seq results: CROT expression (gene CROT, hepatocytes): 0.19
- RNA-seq results: CSPP1 expression (gene CSPP1, hepatocytes): −0.09
- RNA-seq results: CTC1 expression (gene CTC1, hepatocytes): 0.04
- RNA-seq results: CTDSP2 expression (gene CTDSP2, hepatocytes): −0.06
- RNA-seq results: CTH expression (gene CTH, hepatocytes): 0.15
- RNA-seq results: CTNS expression (gene CTNS, hepatocytes): 0.1
- RNA-seq results: CTSF expression (gene CTSF, hepatocytes): 0.07
- RNA-seq results: CTSK expression (gene CTSK, hepatocytes): −0.13
- RNA-seq results: CYB5A expression (gene CYB5A, hepatocytes): −0.01
- RNA-seq results: CYB5R3 expression (gene CYB5R3, hepatocytes): 0.05
- RNA-seq results, CYP2B6 expression (gene CYP2B6, hepatocytes): 0.55
- RNA-seq results: CYP2B6 expression (gene CYP2B6, hepatocytes): −0.04
- RNA-seq results, CYP2C19 expression (gene CYP2C19, hepatocytes): 0.61
- RNA-seq results: CYP2C19 expression (gene CYP2C19, hepatocytes): −0.79
- RNA-seq results, CYP2D6 expression (gene CYP2D6, hepatocytes): 0.31
- RNA-seq results: CYP2D6 expression (gene CYP2D6, hepatocytes): −0.01
- RNA-seq results, CYP3A4 expression (gene CYP3A4, hepatocytes): 3.59
- RNA-seq results: CYP3A4 expression (gene CYP3A4, hepatocytes): 0.18
- RNA-seq results, CYP7B1 expression (gene CYP7B1, hepatocytes): 0.59
- RNA-seq results: CYP7B1 expression (gene CYP7B1, hepatocytes): −0.27
- RNA-seq results: CYP27A1 expression (gene CYP27A1, hepatocytes): −0.03
- RNA-seq results, CYP39A1 expression (gene CYP39A1, hepatocytes): 1.11
- RNA-seq results: CYP39A1 expression (gene CYP39A1, hepatocytes): −0.23
- RNA-seq results: DAO expression (gene DAO, hepatocytes): −0.06
- RNA-seq results: DBT expression (gene DBT, hepatocytes): −0.01
- RNA-seq results: DCDC2 expression (gene DCDC2, hepatocytes): −0.57
- RNA-seq results: DCXR expression (gene DCXR, hepatocytes): 0.23
- RNA-seq results: FABP1 expression (gene FABP1, hepatocytes): −0.33
- RNA-seq results: FADD expression (gene FADD, hepatocytes): 0.17
- RNA-seq results: FAM111A expression (gene FAM111A, hepatocytes): −0.14
- RNA-seq results: FAM111B expression (gene FAM111B, hepatocytes): 1.04
- RNA-seq results: FAN1 expression (gene FAN1, hepatocytes): 0.11
- RNA-seq results: FARS2 expression (gene FARS2, hepatocytes): −0.7
- RNA-seq results: FASLG expression (gene FASLG, hepatocytes): −0.31
- RNA-seq results: FGA expression (gene FGA, hepatocytes): −0.24
- RNA-seq results: FGD1 expression (gene FGD1, hepatocytes): 0.24
- RNA-seq results: FGFR2 expression (gene FGFR2, hepatocytes): −1.3
- RNA-seq results: FIG4 expression (gene FIG4, hepatocytes): −0.09
- RNA-seq results: FIS1 expression (gene FIS1, hepatocytes): 0.19
- RNA-seq results: FTCD expression (gene FTCD, hepatocytes): −0.37
- RNA-seq results: FTH1 expression (gene FTH1, hepatocytes): 0.34
- RNA-seq results: FUCA1 expression (gene FUCA1, hepatocytes): 0.04
- RNA-seq results: FXN expression (gene FXN, hepatocytes): −0.11
- RNA-seq results: G6PC3 expression (gene G6PC3, hepatocytes): 0.11
- RNA-seq results: G6PC expression (gene G6PC, hepatocytes): −0.55
- RNA-seq results: G6PD expression (gene G6PD, hepatocytes): 0.55
- RNA-seq results: GALK1 expression (gene GALK1, hepatocytes): 0.19
- RNA-seq results: GALK2 expression (gene GALK2, hepatocytes): 0.04
- RNA-seq results: GALT expression (gene GALT, hepatocytes): −0.13
- RNA-seq results: GATA6 expression (gene GATA6, hepatocytes): −0.12
- RNA-seq results: GATM expression (gene GATM, hepatocytes): −0.13
- RNA-seq results: GBA expression (gene GBA, hepatocytes): 0.02
- RNA-seq results: GBE1 expression (gene GBE1, hepatocytes): −0.01
- RNA-seq results: GCH1 expression (gene GCH1, hepatocytes): 0.04
- RNA-seq results: GCKR expression (gene GCKR, hepatocytes): −0.15
- RNA-seq results: GCLC expression (gene GCLC, hepatocytes): 0.18
- RNA-seq results: GOSH expression (gene GOSH, hepatocytes): 0.18
- RNA-seq results: RRM2B (gene RRM2B, hepatocytes): 0.45
- RNA-seq results: RSAD1 (gene RSAD1, hepatocytes): 0.22
- RNA-seq results: SAMHD1 (gene SAMHD1, hepatocytes): −0.22
- RNA-seq results: SC5D (gene SC5D, hepatocytes): 0.22
- RNA-seq results: SCARB1 (gene SCARB1, hepatocytes): −0.40
- RNA-seq results: SCN9A (gene SCN9A, hepatocytes): −0.97
- RNA-seq results: SDCCAG8 (gene SDCCAG8, hepatocytes): 0.11
- RNA-seq results: SEPN1 (gene SEPN1, hepatocytes): −0.18
- RNA-seq results: SERAC1 (gene SERAC1, hepatocytes): −0.05
- RNA-seq results: SERPINA1 (gene SERPINA1, hepatocytes): 0.31
- RNA-seq results: SERPING1 (gene SERPING1, hepatocytes): 0.27
- RNA-seq results: SERPINI1 (gene SERPINI1, hepatocytes): 0.67
- RNA-seq results: SETBP1 (gene SETBP1, hepatocytes): −0.46
- RNA-seq results: SFXN4 (gene SFXN4, hepatocytes): 0.01
- RNA-seq results: SLC10A1 (gene SLC10A1, hepatocytes): 0.97
- RNA-seq results: SLC10A3 (gene SLC10A3, hepatocytes): −0.64
- RNA-seq results: SLC10A5 (gene SLC10A5, hepatocytes): 1.23
- RNA-seq results: SLC10A7 (gene SLC10A7, hepatocytes): −0.12
- RNA-seq results: SLC11A2 (gene SLC11A2, hepatocytes): −0.54
- RNA-seq results: SLC19A1 (gene SLC19A1, hepatocytes): −0.37
- RNA-seq results: SLC19A2 (gene SLC19A2, hepatocytes): −0.01
- RNA-seq results: SLC19A3 (gene SLC19A3, hepatocytes): 0.18
- RNA-seq results: SLC22A1 (gene SLC22A1, hepatocytes): 0.16
- RNA-seq results: SLC22A5 (gene SLC22A5, hepatocytes): −0.46
- RNA-seq results: SLC25A1 (gene SLC25A1, hepatocytes): −0.04
- RNA-seq results: SLC25A10 (gene SLC25A10, hepatocytes): 0.24
- RNA-seq results: SLC25A12 (gene SLC25A12, hepatocytes): −0.27
- RNA-seq results: SLC25A13 (gene SLC25A13, hepatocytes): 0.22
- RNA-seq results: SLC25A15 (gene SLC25A15, hepatocytes): 1.61
- RNA-seq results: SLC25A19 (gene SLC25A19, hepatocytes): 0.07
- RNA-seq results: SLC25A20 (gene SLC25A20, hepatocytes): 0.62
- RNA-seq results: SLC25A29 (gene SLC25A29, hepatocytes): −0.40
- RNA-seq results: SLC25A32 (gene SLC25A32, hepatocytes): −0.06
